We go through 21 compounds from patent US4518789A, “Phenyl alpha-acyloxyacetamide derivatives and their therapeutic use” (priority 1983, dated 1985).

Series [1] has as its system calming or sedative effects. As to the kind of experiment: Tranquilizing effect, oral administration in dogs. In kind it is in vivo. To be noted: for tranquilizing / sedative effect: test compounds 5 to 10 mg per kg. On the procedure:
Hairless mice, white hairy mice and dogs were used in these studies.
Three dogs weighing between 10 to 20 kg were given orally N-phenethyl phenyl-alpha-acetoxyacetamide or N-ethyl phenyl-alpha-acetoxyacetamide in gelating capsules at doses of 5 to 10 mg per kg.

Series [2] deals with Eczemas, and Other Pruritic Disorders. Description: Topical anti-pruritic effect in patients with pruritic disorders. In kind it is in vivo, human.
From the text: Patients with various kinds of pruritic disorders participated in this study. The cases included atopic eczema, patchy eczema, chronic eczema of the hands, lichen simplex chronicus, contact allergic eczema, pruritus of the aged, pruritus of hepatic origin, pruritus ani, pruritus vulvae, scalp pruritus and pruritus of other disorders such as mycosis fungoides, psoriasis and pityriasis rubra pilaris.
Therapeutic compositions containing phenyl-alpha-acyloxyacetamides at 2 to 5% concentrations in cream, ointment, lotion or solution were prepared according to the Examples. The medicinal compositions were topically applied by the patient in an amount sufficient to cover the itching area of skin. Applications were made one to two times daily or as frequently as necessary and without occlusive dressings.
Two parameters have been used to compare degrees of anti-pruritic effect of phenyl-alpha-acyloxyacetamides. The first parameter is whether the relief of itching is complete (2+) or incomplete (1+). The second parameter is the number of hours the patient stays free of pruritus after the initial anti-pruritic effect. […] Therefore, the overall anti-pruritic effect of a compound may range from 2+ to 4+. […] 4+ for complete relief and lasting for more than 8 hours.
Series [3] concerns itch provoked by papain or histamine dihydrochloride. As to the kind of experiment: Anti-pruritic effect on normal human skin (papain or histamine induced itch). The class given is in vivo. To be noted: 2 to 5% topical, normal human adult volunteers. The protocol:
Itch provoking pruritic compositions were prepared as follows: papain 0.5% solution was prepared by dissolving papain 50 mg in 10 ml of saline, and histamine 0.2% solution was prepared by dissolving histamine dihydrochloride 20 mg in 10 ml of saline. Itching was provoked or induced as follows: a pruritic composition in a volume of 0.05 ml containing papain or histamine dihydrochloride as a pruritic agent was topically applied on the flexor forearm of normal human adult volunteers and the skin site was gently pricked rapidly through the solution with a 26-gauge needle to the level of the papillary dermis as described by Bernstein et al. (J. E. Bernstein, R. M. Swift, K. Soltani and A. L. Lorincz: Antipruritic Effect of an Opiate Antagonist, Naloxone Hydrochloride in Journal of Investigative Dermatology 78, 82-83, 1982). This technique provoked or induced itch sensation at the test skin site within a few minutes following the topical application of the pruritic composition. After itch sensation had been induced a composition containing 2 to 5% N-ethyl phenyl-alpha-acetoxyacetamide, N-phenethyl phenyl-alpha-acetoxyacetamide or other phenyl-alpha-acyloxyacetamide derivatives of the instant invention was topically applied on the pruritic skin site. The vehicle alone cream containing no active ingredient was used as a control.

Where [4] appears, read: first category compounds, 2 to 5%.
[5] abbreviates: intermediate and related compounds.

In the case of `CN(C)CCOC(c1ccccc1)c1ccccc1` [Benadryl], in series [1], the “soporific or drowsy effects” value was “soporific and drowsy effects”; the “tranquilizing / sedative effect” value is “substantial sedative effects”. Take `CC(=O)OC(C(=O)N(Cc1ccccc1)Cc1ccccc1)c1ccccc1` (stereo not drawn) [N,N-dibenzyl phenyl-alpha-acetoxyacetamide]: in series [2] (setting [4]), the “Anti-pruritic Effect” value is 3+.

Turning to `CCN(CC)C(=O)C(OC(C)=O)c1ccccc1` (stereo not drawn) [N,N-diethyl phenyl-alpha-acetoxyacetamide], the “Anti-pruritic Effect” value in series [2] (setting [4]) is 4+ (complete relief and lasting for more than 8 hours). On to `CC(=O)OC(C(=O)NCc1cccnc1)c1ccccc1` (stereo not drawn) [N-3'-picolyl phenyl-alpha-acetoxyacetamide], for which the “Anti-pruritic Effect” value in series [2] (setting [5]) was 3+. `COc1ccc(CCNC(=O)C(OC(C)=O)c2ccccc2)cc1OC` (stereo not drawn) [N-(3,4 -dimethoxyphenethyl)phenyl-alpha-acetoxyacetamide]: in series [2] (setting [4]), the “Anti-pruritic Effect” value was 4+ (complete relief and lasting for more than 8 hours).

Regarding `CCN(CC)CCNC(=O)C(OC(C)=O)c1ccccc1` (stereo not drawn) [N-(N',N'-diethylaminoethyl)phenyl-alpha-acetoxyacetamide], the “Anti-pruritic Effect” value in series [2] (setting [5]) is 3+.

With `CC(=O)OC(C(=O)NCc1ccccc1)c1ccccc1` (stereo not drawn) [N-benzyl phenyl-alpha-acetoxyacetamide], the “Anti-pruritic Effect” value in series [2] (setting [4]) was 4+ (complete relief and lasting for more than 8 hours). Same read-out and setting: with `CCNC(=O)C(OC(=O)Cc1ccccc1)c1ccccc1` (stereo not drawn) [N-ethyl phenyl-alpha-phenylacetoxyacetamide] the figure was 4+ (complete relief and lasting for more than 8 hours); with `CC(=O)OC(C(=O)NCCSCCO)c1ccccc1` (stereo not drawn) [N-hydroxyethylthioethylphenyl-alpha-acetoxyacetamide], 3+. Still for that read-out and setting: with `CC(=O)OC(C(=O)NC(C)C)c1ccccc1` (stereo not drawn) [N-isopropyl phenyl-alpha-acetoxyacetamide] the figure was 3+. The same measure, in the same setting: with `CNC(=O)C(OC(C)=O)c1ccccc1` (stereo not drawn) [N-methyl phenyl alpha-acetoxyacetamide] the figure was 3+. As to `CC(=O)OC(C(=O)NCc1ccc(Cl)cc1)c1ccccc1` (stereo not drawn) [N-p-chlorobenzyl phenyl-alpha-acetoxyacetamide], the “Anti-pruritic Effect” value in series [2] (setting [4]) is 4+ (complete relief and lasting for more than 8 hours). Regarding `COc1ccc(CNC(=O)C(OC(C)=O)c2ccccc2)cc1` (stereo not drawn) [N-p-methoxybenzyl phenyl-alpha-acetoxyacetamide], the “Anti-pruritic Effect” value in series [2] (setting [4]) was 4+ (complete relief and lasting for more than 8 hours). On the same count and under the same terms, with `COc1ccc(CCNC(=O)C(OC(C)=O)c2ccccc2)cc1` (stereo not drawn) [N-p-methoxyphenethyl phenyl-alpha-acetoxyacetamide] the figure was 4+ (complete relief and lasting for more than 8 hours). As to `CC(=O)OC(C(=O)NCCc1ccccc1)(c1ccccc1)c1ccccc1` [N-phenethyl diphenyl-alpha-acetoxyacetamide], the Anti-pruritic Effect entry in series [3] is reported as “substantial anti-pruritic effect”.

In the case of `CCC(=O)OC(C(=O)NCCc1ccccc1)(c1ccccc1)c1ccccc1` [N-phenethyl diphenyl-alpha-propionyloxyacetamide], the “duration of anti-pruritic effect” value in series [2] (2 to 5%, after initial anti-pruritic effect) is listed as “less than 8 hours”. Besides, the “relief of itching (in words)” value in series [2] (all patients tested) is given as “completely abolished itch sensations”. Take `CC(=O)OC(C(=O)OC(C(=O)NCCc1ccccc1)c1ccccc1)c1ccccc1` (stereo not drawn) [N-phenethyl phenyl-alpha-(o-acetylmandeloyloxy)acetamide]: in series [2] (setting [5]), the “Anti-pruritic Effect” value is on record as 3+. On the same count and under the same terms, with `O=C(NCCc1ccccc1)C(O)c1ccccc1` (stereo not drawn) [N-phenethyl phenyl-alpha-hydroxyacetamide] the figure was 3+. Regarding `CCC(=O)OC(C(=O)NCCc1ccccc1)c1ccccc1` (stereo not drawn) [N-phenethyl phenyl-alpha-propionyloxyacetamide], the “Anti-pruritic Effect” value in series [2] (setting [4]) is reported as 3+. Same read-out and setting: with `CC(=O)OC(C(=O)NC(C)(C)C)c1ccccc1` (stereo not drawn) [N-t-butyl phenyl-alpha-acetoxyacetamide] the figure was 4+ (complete relief and lasting for more than 8 hours). As for `CN1C(=O)CN=C(c2ccccc2)c2cc(Cl)ccc21` [Valium], in series [1], the “soporific or drowsy effects” value was “soporific and drowsy effects”; the “tranquilizing / sedative effect” value is given as “substantial sedative effects”.
